Columns and labels:
Type in all cases: cell-based, mouse
TCR3 = assay: Single SABR-II co-incubation, NFAT-GFP Jurkat; settings: TCR 3, Fig 5C
From the text: Given the predominance of HIP-reactive TCRs, we hypothesized that there may be other TCRs that respond to HIPs that were not encoded in our initial library configuration. While the initial I-Ag7 SABR-II library consisted of a number of HIPs, HIP formation is thought to be more widespread in pancreatic β-cells[52],[70]. Therefore, we sought to construct a defined, HIP-focused library to probe whether there were any undiscovered HIP-reactive TCRs that could be recognized by the clonally expanded TCR in our dataset. To test this, we utilized a published proteomic dataset, which predicted that several proteins that were highly expressed in secretory granules of β-cells may contribute to HIP formation. Using their predictions, we built a theoretical HIP library, in which all possible ‘left’ halves of the insulin C chain derived from natural cleavage products were fused to ‘right’ halves derived from secretory granule proteins (Fig. 5a). This 2,561-epitope library (12–25 amino acids per epitope) consisted of only HIPs and a small number of positive control epitopes (Supplementary Table 5). We screened the top three clonally expanded TCRs (TCR1, TCR2 and TCR3) against this library, as these TCRs had not been de-convoluted using the original library. […] To confirm that the HIP itself was important for the cognate interaction, we cloned single 14-mer epitopes into SABR-IIs consisting of seven amino acids of the left portion of the HIP and seven amino acids of the right portion of the HIP. In this way, no nine amino acids from either peptide sequence alone could occupy the binding pocket of I-Ag7, ensuring that TCR reactivity spanned the HIP junction. […] Of note, in all the epitopes that were tested, the ‘left’ half derived from insulin C was conserved, whereas the ‘right’ halves were derived from several other proteins (Fig. 5d). […] Moreover, the promiscuous binding of TCR3 to HIPs corroborates evidence from other NOD mouse-derived TCRs reacting to multiple HIPs[72].
For SABR library screens, 3 × 10^6 NFAT–GFP Jurkat cells expressing the SABR library were labeled with CellTrace Violet (BioLegend) according to the manufacturer’s protocol before incubation with 3 × 10^6 Jurkat cells expressing the TCR of interest. These mixtures were incubated in a six-well plate for 16–20 h. Cells were stained with anti-CD69-APC-Cy7 where indicated (BioLegend) and the top 1–2% of GFP^+CD69^+ cells were sorted for genomic DNA extraction, indexing and sequencing (see below). Multiplexed assays were scaled on a per-TCR basis (for example 3 × 10^6 for each of three TCRs against 9 × 10^6 library cells). For single SABR assays, unless otherwise defined, 5 × 10^5 SABR expressing NFAT–GFP Jurkat cells (or 5KC cells) were labeled with CellTrace Violet (BioLegend) according to the manufacturer’s protocol before incubation with 5 × 10^5 TCR-expressing Jurkat cells (or 5KC cells) in a round-bottom 96-well plate for 16–20 h. Cells were stained with anti-CD69-APC-Cy7 when indicated and acquired on the Attune NxT flow cytometer (Thermo Fisher Scientific). All flow analysis was performed using FlowJo (BD). For Daudi cell co-culture, 1 × 10^6 Jurkat cells expressing the TCR of interest were incubated with 1 × 10^6 Daudi cells expressing a SABR of interest for 3 days. On day 3, cells were labeled with anti-RT1B-PE and anti-Fas-APC-Cy7 before being acquired on the Attune NxT flow cytometer.

TCR37 = assay: mIL-2 ELISA, TCR-expressing 5KC cells with SABR NFAT-GFP Jurkat cells; settings: murine IL-2 ELISA, 24 hr co-incubation
5KC cells, No TCR = assay: mIL-2 ELISA, 5KC cells without TCR with SABR NFAT-GFP Jurkat cells; settings: murine IL-2 ELISA, 24 hr co-incubation

LQTLALNAARDP was tested, and the “%GFP+CD69+ cells of SABR-NFAT-GFP-Jurkat cells” value (TCR3; technical replicate 1) was 0.94% and the “%GFP+CD69+ cells of SABR-NFAT-GFP-Jurkat cells” value (TCR3; technical replicate 2) was 0.89%.

Sequence SHLVEALYLVCGERG has an IL-2 secretion (TCR37; technical replicate 1) of 37.8351, an IL-2 secretion (TCR37; technical replicate 2) of 38.2928 and an IL-2 secretion (5KC cells, No TCR; technical replicate 1) of 2.192. For the same sequence, the IL-2 secretion (5KC cells, No TCR; technical replicate 2) was 4.996.

Source: PMC11093748, “De novo identification of CD4^+ T cell epitopes” (Nature Methods, 2024)
